Results reported in PubChem BioAssay AID1918955 (Molecular Pharmacology Branch, DTP, NCI, 2023).
Values joined by “and” are separate entries in the source; they are usually repeats but may differ in a detail not shown here. Equal values may be shown once.

System: NCI/ADR-RES complex spheroid viability
Assay: Anticancer human tumor NCI/ADR-RES cell line growth inhibition;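 further: spheroids exposed to compounds for 7 days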;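 on viability, T/C: 100% = DMSO vehicle treated spheroids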
Conditions: for viability, T/C: stronger effect = lower value; for IC50: curve of compound
Excerpt: Multicellular complex tumor spheroid response to LSD1 Inhibitor Iadademstat in combination with a variety of drugs and investigational agents in selected tumor cell lines
The current study was undertaken to assess response to LSD1 inhibitors in combination with standard-of-care drugs and investigational agents in solid tumor complex spheroid models as well as in the K-562 leukemia. Complex spheroids include a stromal component modeled by human endothelial cells (HUVEC) and fibroblasts modeled by human mesenchymal stem cells (MSCs). The concentration ranges selected for each drug and investigational agent were based upon clinically achievable concentrations if the clinical Cmax of the agent was known.
Compounds. The drugs and investigational agents used in this study are listed on Table 1. All of the agents used, including staurosporine (NSC755774) and gemcitabine (NSC613327), were obtained from the Developmental Therapeutics Program, NCI. FDA-approved anticancer drugs are available from the NCI at http://dtp.nci.nih.gov/branches/dscb/oncology_drugset_explanation.html. Drugs and investigational agents were >95% pure by proton nuclear magnetic resonance (NMR) and liquid chromatography/mass spectrometry (LC/MS). Stock solutions were prepared at 400x in DMSO, stored at -70 degrees C, and diluted in fresh medium prior to their use. The final concentration of DMSO in cell culture wells never exceeded 0.25% (v/v). The FDA-approved anticancer drug set is available from the Developmental Therapeutics Program at https://dtp.cancer.gov/organization/dscb/obtaining/available_plates.htm. All drugs and investigational agents were tested over a range starting from a high concentration at or near the clinical Cmax and decreasing in half-log increments. If the clinical Cmax for an agent had not been determined, the highest concentration tested was 10 microM.
Cell Lines. The patient-derived cancer cell (PDC) lines: 292921-168-R-J2-PDC, K24384-001-R-PDC, and 521955-158-R2-J5-PDC pancreatic carcinomas, 556581-035-R-J1 ovarian carcinoma, 324938-238-R-J1-PDC, 855422-203-R-J1-PDC and 883617-216-R-J1-PDC urothelial bladder carcinomas, 743489-274-T-PDC renal cell carcinoma, 138582-R-J1 Merkel cell tumor, K60290-347-R-J1 and K57222-313-R-J1-PDC glioblastomas, 653999-131-R-J2-PDC, LG0703-F948-PDC, and 349418-098-R-PDC non-small cell lung carcinomas, 885512-296-R-J2-PDC, 171881-019-R-J1-PDC breast carcinomas and 186277-243-T-J2-PDC and 233499-124-R-J2-PDC colon carcinomas were obtained from the NCI Patient-Derived Models Repository (PDMR, https://pdmr.cancer.gov). The established cell lines NCI/ADR-RES (RRID:CVCL_14520 and OVCAR-5 (RRID:CVCL_1628) ovarian carcinomas, 786-O (RRID:CVCL_1051) and A498 (RRID:CVCL_A498) renal cell carcinoma, NCI-H211 (ATCC, cat. CRL-5824; RRID:CVCL_1529), NCI-H196 (ATCC, cat. CRL-5823, RRID:CVCL_1509), SW 1271 (ATCC, cat. CRL-2177, RRID:CVCL_1716) and NCI-H1876 (ATCC, cat. CRL-5902, RRID:CVCL_1503) small cell lung carcinomas, MDA-MB-231 (RRID:CVCL_0062) and MDA-MB-468 (RRID:CVCL_0419)breast carcinomas (10-12). Pooled donor human umbilical vein endothelial cells (HUVEC, Lonza, cat. CC-2519) and human mesenchymal stem cells (hMSC, Lonza, cat. PT-2501) were purchased from Lonza (Walkersville, MD).
Cell Culture. All cells were maintained in an incubator at 37 degrees C and 5% CO2 with 95% humidity. The PDC lines were cultured according to standard operating procedures established by the NCI PDMR (https://pdmr.cancer.gov). Briefly all PDCs were thawed and cultured in Matrigel-coated flasks prepared with a working solution of 1X Ham's F-12 nutrient mix, without supplementation (Invitrogen, Waltham, MA, cat. 11765054), 100 U/mL penicillin-streptomycin (Invitrogen, cat. 15140122), and 2.5% Matrigel (Corning Inc., Corning, NY, cat. 354248) for the first three passages. […]

IC50 | SMILES | viability, T/C (compound 0.000316 µM) | viability, T/C (compound 0.001 µM) | viability, T/C (compound 0.00316 µM) | viability, T/C (compound 0.01 µM) | viability, T/C (compound 0.0316 µM) | viability, T/C (compound 0.1 µM) | viability, T/C (compound 0.316 µM) | viability, T/C (compound 1 µM) | viability, T/C (compound 3.16 µM) | viability, T/C (compound 10 µM) | viability, T/C (compound 0.00949 µM) | viability, T/C (compound 0.03 µM) | viability, T/C (compound 0.0949 µM) | viability, T/C (compound 0.3 µM) | viability, T/C (compound 0.949 µM) | viability, T/C (compound 3 µM) | viability, T/C (compound 0.000949 µM) | viability, T/C (compound 0.003 µM)
> 10 µM | CC1(C)CCC(CN2CCN(c3ccc(C(=O)NS(=O)(=O)c4ccc(NCC5CCOCC5)c([N+](=O)[O-])c4)c(Oc4cnc5[nH]ccc5c4)c3)CC2)=C(c2ccc(Cl)cc2)C1 |  |  |  |  | 99.8% and 108% | 108% and 106% | 101% and 106% | 104% and 105% | 101% and 104% | 94.1% and 90% |  |  |  |  |  |  |  | 
0.013 µM and 0.00727 µM | CC1COCCN1c1cc(-c2ccnn2C)c2ccnc(-c3ccn[nH]3)c2n1 (configuration not stated) |  |  | 89.5% and 71.9% | 61.3% and 41.6% | 11.2% and 7.14% | 3.93% and 1.95% | 2.2% and 2.13% | 4.12% and 1.96% |  |  |  |  |  |  |  |  |  | 
> 3 µM | CCN(c1cc(-c2ccc(CN3CCOCC3)cc2)cc(C(=O)NCc2c(C)cc(C)[nH]c2=O)c1C)C1CCOCC1 |  |  |  |  |  |  |  |  |  |  | 99.6% and 106% | 98.7% and 102% | 98.2% and 104% | 99% and 97.8% | 91.6% and 97.3% | 86.3% and 88% |  | 
0.00718 µM and 0.00706 µM | CC[C@@]1(O)C(=O)OCc2c1cc1n(c2=O)Cc2cc3c(CN(C)C)c(O)ccc3nc2-1 | 102% and 96.9% | 102% and 100% | 78.6% and 75.9% | 39.1% and 39.4% | 7.88% and 7.23% | 2.74% and 2.23% |  |  |  |  |  |  |  |  |  |  |  | 
0.0169 µM and 0.01 µM | COc1cc(Nc2ncc3c(n2)-c2ccc(Cl)cc2C(c2c(F)cccc2OC)=NC3)ccc1C(=O)O |  |  | 95.4% and 84.5% | 64.5% and 50% | 32.7% and 30% | 22.9% and 20.4% | 22.6% and 16.1% | 19.7% and 15.5% |  |  |  |  |  |  |  |  |  | 

More lines, now with the values behind:

SMILES | IC50 | viability, T/C (compound 0.000316 µM) | viability, T/C (compound 0.001 µM) | viability, T/C (compound 0.00316 µM) | viability, T/C (compound 0.01 µM) | viability, T/C (compound 0.0316 µM) | viability, T/C (compound 0.1 µM) | viability, T/C (compound 0.316 µM) | viability, T/C (compound 1 µM) | viability, T/C (compound 3.16 µM) | viability, T/C (compound 10 µM) | viability, T/C (compound 0.00949 µM) | viability, T/C (compound 0.03 µM) | viability, T/C (compound 0.0949 µM) | viability, T/C (compound 0.3 µM) | viability, T/C (compound 0.949 µM) | viability, T/C (compound 3 µM) | viability, T/C (compound 0.000949 µM) | viability, T/C (compound 0.003 µM)
CC(C)CC(NC(=O)C(Cc1ccccc1)NC(=O)c1cnccn1)B(O)O (configuration not stated) | 0.00931 µM and 0.00996 µM | 96.1% and 106% | 102% and 107% | 92.5% and 93.3% | 47.3% and 51.2% | 5.97% and 5.35% | 2.36% and 0.51% |  |  |  |  |  |  |  |  |  |  |  | 
CC(C)CC(NC(=O)CNC(=O)c1cc(Cl)ccc1Cl)B1OC(=O)CC(CC(=O)O)(C(=O)O)O1 (configuration not stated) | 0.025 µM and 0.021 µM | 98% and 97.7% | 105% and 96.7% | 103% and 105% | 71.3% and 79.3% | 45.7% and 33.5% | 4.13% and 1.05% |  |  |  |  |  |  |  |  |  |  |  | 
CC(C)c1c(-c2ccccc2)nc2c(C#N)c[nH]n2c1=O | > 10 µM |  |  |  |  | 103% and 102% | 99.6% and 94.7% | 96.5% and 96.3% | 104% | 98.6% and 93.1% | 94.6% and 96.8% |  |  |  |  |  |  |  | 
CC1COCCN1c1cc(C2(S(C)(=N)=O)CC2)nc(-c2ccnc3[nH]ccc23)n1 (configuration not stated) | > 10 µM and 7.48 µM |  |  |  |  | 101% and 106% | 96% and 110% | 93.8% and 98.5% | 91.3% and 86.3% | 72% and 71.1% | 57.2% and 43.1% |  |  |  |  |  |  |  | 
CCc1c2c(nc3ccc(O)cc13)-c1cc3c(c(=O)n1C2)COC(=O)[C@]3(O)CC | < 0.000949 µM |  |  |  |  |  |  |  |  |  |  | 0.57% and 0.82% | 6.31% and 0.48% | 0.34% and 0.47% | 0.83% and 0.64% |  |  | 4.28% and 3.34% | 2.36% and 1.64%
COc1cc(C2c3cc4c(cc3C(OC3OC5COC(C)OC5C(O)C3O)C3COC(=O)C23)OCO4)cc(OC)c1O (configuration not stated) | > 3 µM |  |  |  |  |  |  |  |  |  |  | 96.8% and 107% | 100% and 104% | 96.4% and 104% | 95.8% and 105% | 96.1% and 98.4% | 93.1% and 90.2% |  | 
